Source: PMC2782546 (Chemical biology & drug design, 2009)
Like-named read-outs stand apart in the source and are kept apart here. The star is where a group is joined. Lys(Fam) = Lys(Fam): lysine whose ε-amino group carries Fam (fluorescein), added using fluorescein-5-isothiocyanate; Dnp = O=[N+]([O-])c1ccc(*)c([N+](=O)[O-])c1; Mca = COc1ccc2c(CC(=O)*)cc(=O)oc2c1

Tests used:
ADAMTS-4 [1] = conditions: ADAMTS-4 aggrecanase activity; cited from earlier work
MT1-MMP = conditions: cited from earlier work
MMP-7 = conditions: cited from earlier work
MMP-13 = conditions: MMP-13, inhibitor concentration 50 μM; cited from earlier work
ADAMTS-1 = ADAMTS-1 aggrecanase activity; cited from earlier work
ADAM-10 = conditions: ADAM-10, inhibitor concentration 50 μM; cited from earlier work
MMP-9 [2] = target: T1, MMP-9 (Homo sapiens, UniProt P14780); conditions: cited from earlier work
T1 sequence (P14780 94-707, species assumed): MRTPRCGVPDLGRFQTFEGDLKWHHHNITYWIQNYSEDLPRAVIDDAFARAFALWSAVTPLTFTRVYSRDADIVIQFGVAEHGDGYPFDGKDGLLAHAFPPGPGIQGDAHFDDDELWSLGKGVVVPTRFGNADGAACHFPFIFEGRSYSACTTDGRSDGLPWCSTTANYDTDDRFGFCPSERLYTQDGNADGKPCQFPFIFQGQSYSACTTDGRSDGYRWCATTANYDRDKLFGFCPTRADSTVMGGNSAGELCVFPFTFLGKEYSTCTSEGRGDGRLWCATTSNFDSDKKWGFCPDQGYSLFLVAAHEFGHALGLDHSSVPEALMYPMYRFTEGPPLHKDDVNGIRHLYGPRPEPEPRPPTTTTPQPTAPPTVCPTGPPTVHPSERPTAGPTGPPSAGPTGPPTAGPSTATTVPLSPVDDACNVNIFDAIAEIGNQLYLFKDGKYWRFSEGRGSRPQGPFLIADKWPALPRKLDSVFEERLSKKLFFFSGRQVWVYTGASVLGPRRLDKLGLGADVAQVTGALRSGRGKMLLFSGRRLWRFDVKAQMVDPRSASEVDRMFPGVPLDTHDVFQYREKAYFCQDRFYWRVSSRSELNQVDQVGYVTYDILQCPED

MMP-2 [3] = target: T2, MMP-2 (Homo sapiens, UniProt P08253); conditions: cited from earlier work
T2 sequence (P08253 110-660): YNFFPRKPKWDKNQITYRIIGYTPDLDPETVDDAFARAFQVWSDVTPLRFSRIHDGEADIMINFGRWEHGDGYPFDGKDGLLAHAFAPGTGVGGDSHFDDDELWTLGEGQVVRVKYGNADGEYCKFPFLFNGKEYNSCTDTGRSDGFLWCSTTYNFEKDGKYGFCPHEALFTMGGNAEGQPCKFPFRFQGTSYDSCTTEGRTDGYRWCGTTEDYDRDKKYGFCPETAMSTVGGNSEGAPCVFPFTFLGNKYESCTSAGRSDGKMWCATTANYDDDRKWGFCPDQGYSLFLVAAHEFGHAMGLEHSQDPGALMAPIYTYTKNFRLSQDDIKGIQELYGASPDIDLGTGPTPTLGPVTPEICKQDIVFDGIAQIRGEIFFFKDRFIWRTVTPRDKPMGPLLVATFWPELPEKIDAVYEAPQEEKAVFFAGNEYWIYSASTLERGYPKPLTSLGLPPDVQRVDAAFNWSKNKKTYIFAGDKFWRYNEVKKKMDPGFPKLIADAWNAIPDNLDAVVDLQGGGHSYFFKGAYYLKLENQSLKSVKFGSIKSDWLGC

MMP-1 [4] = conditions: MMP-1, inhibitor concentration 50 μM; cited from earlier work
MMP-2 [5] = target: T2, MMP-2; assay: MMP-2 inhibition assay with FRET substrates; assay type: biochemical
ADAMTS-5 [6] = target: T3, ADAMTS-5 (Homo sapiens, UniProt Q9UNA0); assay: ADAMTS-5 inhibition, RP-HPLC analysis of cleavage products; assay type: biochemical; conditions: ADAMTS-5, data not shown
T3 sequence (Q9UNA0 262-731 limits assumed): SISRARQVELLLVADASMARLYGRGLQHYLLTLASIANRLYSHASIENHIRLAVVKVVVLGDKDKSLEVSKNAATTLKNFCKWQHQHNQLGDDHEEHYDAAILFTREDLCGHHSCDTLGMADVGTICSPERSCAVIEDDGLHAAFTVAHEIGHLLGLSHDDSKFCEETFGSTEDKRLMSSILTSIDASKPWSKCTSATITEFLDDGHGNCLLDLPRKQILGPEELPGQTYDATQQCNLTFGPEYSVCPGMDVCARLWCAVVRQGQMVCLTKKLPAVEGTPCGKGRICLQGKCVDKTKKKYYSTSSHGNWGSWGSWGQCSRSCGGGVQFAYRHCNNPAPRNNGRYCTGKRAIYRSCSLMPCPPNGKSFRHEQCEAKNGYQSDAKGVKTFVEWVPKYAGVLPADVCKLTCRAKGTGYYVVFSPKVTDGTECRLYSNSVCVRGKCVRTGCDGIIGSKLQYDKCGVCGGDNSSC

ADAMTS-4 (aggrecanase-1) [7] = target: T4, ADAMTS-4 (aggrecanase-1) (Homo sapiens, UniProt O75173); assay: ADAMTS-4 inhibition, RP-HPLC analysis of cleavage products
T4 sequence (O75173 213-685 limits assumed): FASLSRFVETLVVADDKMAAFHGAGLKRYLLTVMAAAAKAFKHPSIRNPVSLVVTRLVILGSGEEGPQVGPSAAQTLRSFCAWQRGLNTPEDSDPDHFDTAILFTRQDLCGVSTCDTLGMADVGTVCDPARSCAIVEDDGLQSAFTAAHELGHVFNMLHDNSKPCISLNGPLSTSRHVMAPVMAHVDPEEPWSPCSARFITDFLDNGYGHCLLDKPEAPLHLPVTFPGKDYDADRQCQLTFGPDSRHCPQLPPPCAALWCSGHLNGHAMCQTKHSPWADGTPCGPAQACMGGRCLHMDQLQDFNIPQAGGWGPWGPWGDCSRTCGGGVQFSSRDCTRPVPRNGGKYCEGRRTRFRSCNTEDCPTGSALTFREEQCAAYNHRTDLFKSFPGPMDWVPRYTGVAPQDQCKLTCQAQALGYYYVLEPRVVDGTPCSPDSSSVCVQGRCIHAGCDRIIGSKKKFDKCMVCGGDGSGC

ADAMTS-4 (aggrecanase-1) [8] = target: T4, ADAMTS-4 (aggrecanase-1); assay: ADAMTS-4 inhibition assay, FRET substrate hydrolysis; assay type: biochemical
MMP-12 [9] = target: T5, MMP-12 (Homo sapiens, UniProt P39900); assay: MMP-12 inhibition assay with FRET substrates; assay type: biochemical; conditions: MMP-12, substrate fMMPSshort
T5 sequence (P39900 106-470, species assumed): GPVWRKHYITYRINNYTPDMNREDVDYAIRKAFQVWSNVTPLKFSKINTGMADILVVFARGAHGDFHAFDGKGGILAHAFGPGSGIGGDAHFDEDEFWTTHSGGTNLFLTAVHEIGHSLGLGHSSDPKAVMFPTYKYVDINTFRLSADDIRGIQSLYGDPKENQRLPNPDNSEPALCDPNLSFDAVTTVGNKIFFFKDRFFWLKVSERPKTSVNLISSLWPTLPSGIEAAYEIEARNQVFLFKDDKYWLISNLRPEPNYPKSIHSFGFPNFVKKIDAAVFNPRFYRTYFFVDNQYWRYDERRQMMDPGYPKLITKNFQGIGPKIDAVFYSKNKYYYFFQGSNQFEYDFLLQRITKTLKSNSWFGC

MMP-8 [10] = target: T6, MMP-8 (Homo sapiens, UniProt P22894); assay: MMP-8 inhibition assay with FRET substrates; assay type: biochemical
T6 sequence (P22894 101-467, species assumed): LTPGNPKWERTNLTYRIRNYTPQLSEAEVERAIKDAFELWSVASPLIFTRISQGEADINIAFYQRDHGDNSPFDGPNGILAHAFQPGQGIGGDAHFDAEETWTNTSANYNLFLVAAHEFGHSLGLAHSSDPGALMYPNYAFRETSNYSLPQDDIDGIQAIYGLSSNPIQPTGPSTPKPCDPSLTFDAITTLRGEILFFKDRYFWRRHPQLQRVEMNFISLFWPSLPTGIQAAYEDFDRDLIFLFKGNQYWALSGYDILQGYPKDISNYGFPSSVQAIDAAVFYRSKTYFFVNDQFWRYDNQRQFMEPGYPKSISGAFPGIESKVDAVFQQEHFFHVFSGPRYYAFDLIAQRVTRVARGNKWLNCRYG

ADAMTS-5 [11] = target: T3, ADAMTS-5; assay: ADAMTS-5 inhibition assay, FRET substrate hydrolysis; assay type: biochemical
MMP-9 [12] = target: T1, MMP-9; assay: MMP-9 inhibition assay with FRET substrates; assay type: biochemical; conditions: MMP-9, substrate fMMPSlong
MMP-1 [13] = conditions: cited from earlier work
MMP-2 [14] = target: T2, MMP-2; conditions: cited from earlier work; remark: listed apart in the source
MMP-9 [15] = target: T1, MMP-9; conditions: cited from earlier work; remark: listed apart in the source
MMP-2 [16] = target: T2, MMP-2; conditions: read-out: KM value for MMP hydrolysis; cited from earlier work
MMP-8 [17] = target: T6, MMP-8; conditions: read-out: KM value for MMP hydrolysis; cited from earlier work
ADAMTS-4 [18] = conditions: read-out: KM value for ADAMTS-4 hydrolysis; substrate kinetics; cited from earlier work
MMP-9 [19] = target: T1, MMP-9; conditions: read-out: KM value for MMP hydrolysis; cited from earlier work
MMP-12 [20] = target: T5, MMP-12; conditions: read-out: KM value for MMP hydrolysis; cited from earlier work

Molecule: O=C(O[C@@H]1Cc2c(O)cc(O)cc2O[C@@H]1c1cc(O)c(O)c(O)c1)c1cc(O)c(O)c(O)c1 [Compound 1, (−)-epigallocatechin gallate]
- IC50 (ADAMTS-4 [1]): 0.1 to 0.15 µM
- IC50 (MT1-MMP): 0.019 µM
- IC50 (MMP-7): 1.6 µM
- inhibition (MMP-13): 14–30%
- IC50 (ADAMTS-1): 0.2 to 0.25 µM
- inhibition (ADAM-10): 14–30%
- IC50 (MMP-9 [2]; MMP-9): 0.8 to 13 µM
- IC50 (MMP-2 [3]; MMP-2): 6 to 8 µM
- inhibition (MMP-1 [4]): 14–30%

Molecule: O=C(O[C@@H]1Cc2c(O)cc(O)cc2O[C@@H]1c1ccc(O)c(O)c1)c1cc(O)c(O)c(O)c1 [Compound 2, (−)-epicatechin gallate]
- IC50 (ADAMTS-4 [1]): 0.1 to 0.15 µM
- inhibition (MMP-13): 14–30%
- IC50 (ADAMTS-1): 0.2 to 0.25 µM
- inhibition (ADAM-10): 14–30%
- inhibition (MMP-1 [4]): 14–30%

Molecule: Oc1cc(O)cc(/C=C/c2ccc(O)c(O)c2)c1 [Compound 3, (E)-4-[2-(3,5-dihydroxyphenyl)ethenyl]1,2-benzediol]
- Ki (MMP-2 [5]; MMP-2, substrate fMMPSlong): 10 ± 0.89 µM
- Ki (MMP-2 [5]; MMP-2, substrate fMMPSshort): 12.2 ± 1.82 µM
- inhibition of substrate hydrolysis by RP-HPLC analysis (ADAMTS-5 [6]): inhibited

Molecule: Oc1ccc(/C=C/c2cc(O)cc(O)c2)cc1 [Compound 4, 5-[(1E)-2-(4-hydroxyphenyl)ethenyl]-1,3-benzenediol]
- IC50 (ADAMTS-4 (aggrecanase-1) [7]): > 100 µM
- inhibition of MMP-9 (MMP-9 [2]; prior study): not an inhibitor
- inhibition of MMP-2 (MMP-2 [3]; prior study): not an inhibitor
- IC50 (ADAMTS-4 (aggrecanase-1) [8]): 50 µM

Molecule: C(=C\c1ccccc1)/c1ccccc1 [Compound 5, trans-1,2-diphenylethylene]
- IC50 (ADAMTS-4 (aggrecanase-1) [7]): > 100 µM
- IC50 (ADAMTS-4 (aggrecanase-1) [8]): > 100 µM

Molecule: C(=C/c1ccccc1)/c1ccccc1 [Compound 6, cis-1,2-diphenylethylene]
- IC50 (ADAMTS-4 (aggrecanase-1) [7]): > 100 µM
- IC50 (ADAMTS-4 (aggrecanase-1) [8]): ~100 µM

Molecule: COc1ccc(/C=C/c2cc(O)cc(OC3OC(CO)C(O)C(O)C3O)c2)cc1 (stereo not shown) [Compound 7, 2-[3-hydroxy-5-[(E)-2-(4-methoxyphenyl)ethenyl]phenoxy]-6-(hydroxymethyl)oxane-3,4,5-triol]
- IC50 (ADAMTS-4 (aggrecanase-1) [7]): > 100 µM
- IC50 (ADAMTS-4 (aggrecanase-1) [8]): 20 µM

Molecule: COc1ccc(C=Cc2cc(O)cc(OC3OC(CO)C(O)C(O)C3O)c2)cc1O (stereo not shown) [Compound 8, 2-[3-hydroxy-5-[2-(3-hydroxy-4-methoxyphenyl)ethenyl]phenoxy]-6-(hydroxymethyl)oxane-3,4,5-triol]
- IC50 (ADAMTS-4 (aggrecanase-1) [7]): > 100 µM
- IC50 (ADAMTS-4 (aggrecanase-1) [8]): 50 µM

Molecule: Oc1ccccc1O [Compound 9, 1,2-dihydroxybenzene]
- IC50 (ADAMTS-4 (aggrecanase-1) [7]): > 100 µM
- IC50 (ADAMTS-4 (aggrecanase-1) [8]): 20 µM

Molecule: Oc1cccc(O)c1O [Compound 10, 1,2,3-trihydroxybenzene]
- Ki (MMP-12 [9]): 34.4 ± 3.99 µM
- Ki (MMP-8 [10]): 10.3 ± 0.94 µM
- inhibition of substrate hydrolysis by fluorescence analysis (ADAMTS-5 [11]; ADAMTS-5, data not shown): inhibited
- Ki (ADAMTS-5 [11]; Ki, ADAMTS-5, substrate fTSSshort, apparent Ki): 36.9 ± 8.82 µM
- Ki (MMP-2 [5]; MMP-2, substrate fMMPSshort): 11.3 ± 0.52 µM
- Ki (MMP-9 [12]): 8.29 ± 0.63 µM
- inhibition of substrate hydrolysis by RP-HPLC analysis (ADAMTS-5 [6]): inhibited

Molecule: O=c1cc(-c2ccc(O)cc2)oc2cc(O)cc(O)c12 [apigenin]
- IC50 (MMP-1 [13]): > 100 µM
- EC50 (MMP-2 [14]): 7.5 µM

Molecule: O=c1c(O)c(-c2ccc(O)cc2)oc2cc(O)cc(O)c12 [kaempferol]
- IC50 (MMP-1 [13]): 43.7 µM

Molecule: O=c1cc(-c2ccc(O)c(O)c2)oc2cc(O[C@@H]3O[C@H](CO)[C@@H](O)[C@H](O)[C@H]3O)cc(O)c12 [luteolin-7-O-glucoside]
- EC50 (MMP-9 [15]; MMP-9): 4.6 µM

Molecule: O=c1cc(-c2ccc(O)c(O)c2)oc2cc(O)cc(O)c12 [luteolin]
- Ki (MMP-9 [15]; MMP-9, noncompetitive mechanism): 5.4 µM

Molecule: O=c1c(O)c(-c2ccc(O)c(O)c2)oc2cc(O)cc(O)c12 [quercetin]
- IC50 (MMP-1 [13]): 39.6 µM

Molecule: (Gly-Pro-Hyp)5-Gly-Pro-Lys(Mca)-Gly-Pro-Gln-Gly~Leu-Arg-Gly-Gln-Lys(Dnp)-Gly-Val-Arg-(Gly-Pro-Hyp)5-NH2 [fMMPSlong]
- Km (MMP-2 [16]): 17.2 µM
- Km (MMP-8 [17]): 7.6 µM

Molecule: Lys(Fam)-Asp-Val-Gln-Glu-Phe-Arg-Gly-Val-Thr-Ala-Val-Ile-Arg-Lys(Tamra)-Lys-Gly-Lys-NH2 ({Lys(Fam)}-DVQEFRGVTAVIRK(Tamra)KGK-NH2) [fTSS1]
- Km (ADAMTS-4 [18]): ~35 µM

Molecule: Mca-Lys-Pro-Leu-Gly-Leu-Lys(Dnp)-Ala-Arg-NH2 (Mca-KPLGLK(Dnp)AR-NH2; SMILES COc1ccc2c(CC(=O)N[C@@H](CCCCN)C(=O)N3CCC[C@H]3C(=O)N[C@@H](CC(C)C)C(=O)NCC(=O)N[C@@H](CC(C)C)C(=O)N[C@@H](CCCCNc3ccc([N+](=O)[O-])cc3[N+](=O)[O-])C(=O)N[C@@H](C)C(=O)N[C@@H](CCCNC(=N)N)C(N)=O)cc(=O)oc2c1) [fMMPSshort]
- Km (MMP-9 [19]): 27.7 µM
- Km (MMP-12 [20]): 130 µM
